Measured values published in US9585875B2, “TRPM8 antagonists” (Dompé S.P.A., priority 2011, dated 2017).
pIC50: −log10 of the molar value. One block for each compound: values may come before it.

Tests used:
TRPM8 [1] = molecular target: T1, TRPM8 (Homo sapiens, UniProt Q7Z2W7); test: HTS cell-based Ca2+ mobilization assay (FLIPR TETRA) in HEK293/hTRPM8 cells, agonist Cooling Agent 10; set-up: expressed in transfected cells; conditions: HEK293/hTRPM8, Cooling Agent 10 at EC80
From the text: A functional cell-based assay for the identification of TRPM8 receptor antagonists, optimised to allow high throughput screening at FLIPR^TETRA, was developed in HEK293 cells by stable pure clone selection and functional characterization with a fluorescent calcium sensitive dye.
TRPM8 was cloned into the multiple cloning site of pcDNA3 mammalian expression vector; the obtained construct pcDNA3/hTRPM8 was fully sequence verified and used for the transfection of HEK293 cell line. HEK293 cells stably transfected with TRPM8 gene were maintained in Minimum essential medium. The cells were transfected with the pcDNA3/hTRPM8 vector by electroporation and then selected with medium containing 0.8 mg/ml G418 for 10-15 days.
The following commercial compounds were used as ligands:
Activator: Cooling Agent 10 (Takasago CAS N. 87061-04-9)
Blocker: Capsazepine (SIGMA cat #D_5879)
The experimental activities were performed using FLIPR^TETRA instruments.
HEK293 cells stably transfected with TRPM8 gene were maintained in Minimum essential medium.
The TRPM8 cell line was analysed for the response to a library of compounds using a Ca^2+ mobilization-dependent fluorescence signal in 384 wells microtiter plate format. The analysis was performed using the FLIPR^TETRA (MDC) with the ICCD Camera.
The execution of the assay involved the use of three microtiter plates:
1. Assay plate, containing cells loaded with dye and prepared as follows:
Cells were seeded at 15000 c/well in Poly-D-Lysine coated 384 wells Microtiter Plates in complete medium (25 μl/well).
24 h after seeding, the cell plates were washed with Tyrode assay buffer by the Microplate Washer and 10 μL of Tyrode assay buffer was left in each well.
Cells were then loaded with 10 μL/well of the Fluo-4 NW dye solution by CyBi®-Well pipettor. Each bottle of Fluo4-NW dye (Molecular Probes cat. #F36206, component A) was re-suspended in 8 mL of Tyrode assay buffer and supplemented with 100 μL of water-soluble probenecid (MolecularProbes cat.#F36206, component B).
Dye loaded cell plates were incubated for 1 h at room temperature.
2. Compound Dilution Plate (FIG. 1), containing diluted test compounds, formulated as follows: […]
Column 1: wells containing Assay Buffer plus DMSO 0.5% final
Columns 3-22: wells containing Assay Buffer plus 0.5% DMSO final. To these wells the compounds to be tested were added at 3× concentration.
Column 23: alternating wells of Max Signal Control in second injection (Assay buffer) and Min Signal Control in second injection (Antagonist Capsazepine IC100, 50 μM) in Assay buffer plus 0.5% DMSO final;
Column 24: wells containing Capsazepine (Antagonist) at 8 concentrations in duplicate at final concentrations of 50 μM, 25 μM, 6.25 μM, 3.15 μM, 1.56 μM, 780 nM, […] in Assay buffer plus 0.5% DMSO final.
3. Activator Plate (FIG. 2), containing agonist Cooling Agent 10 at EC80, formulated as follows:
Column 1: Cooling Agent 10 (Agonist) at 8 concentrations dose response in duplicate at final concentrations of 100 μM, 31.6 μM, 10 μM, 3.16 μM, 1 μM, 316 nM, 100 nM, 31.6 nM in Assay buffer;
Columns 2-24: Cooling Agent 10 (Agonist) at EC80 (3 fold concentrated, 20 μM final) in Assay buffer.
The test was carried out according to a procedure comprising the following steps:
1. The samples contained in the wells of the Compound Plate were added to the corresponding wells of the Assay Plate by the FLIPR^TETRA, thus resulting in the addition in Columns 3-22 of the test compounds at 3× concentration to the cells of the assay plates. No mixing was performed in the assay wells and the signal of the emitted fluorescence was recorded for 300 seconds. 2. The samples contained in the wells of the Activator Plate were added to the corresponding wells of the Assay Plate by the FLIPR^TETRA, thus resulting in the addition in Columns 3-22 of the Assay Plate of the agonist compound in addition to the test compounds. The signal of the emitted fluorescence was recorded for 180 seconds.

Male Wistar rats [2] = test: Chronic constriction injury model, mechanical allodynia (Dynamic Plantar Aesthesiometer); assay type: in vivo, rat
Protocol: (§1) Male Wistar rats (220-250 g, Harlan Italy) were used (n=60). Animals were housed in a room with controlled temperature (22±1° C.), humidity (60±10%) and light (12 h per day) for at least a week before being used. Rats were randomly divided into sham, control and treatment groups; ten animals per group were used. All animal experiments were complied with the Italian (D.L. no.116 of Jan. 27, 1992) and associated guidelines in the European Communities Council (Directive of Nov. 24, 1986, 86/609/ECC).
(§2) Antiallodynic effects were assessed at 1 and 3 h post dose. Control animals received vehicle alone (0.5 ml/iv/rat; 10% solutol-NMP and 90% PBS).
(§3) Neuropathic pain behavior was induced by ligation of the sciatic nerve according to the method described by Bennett and Xie [Bennett G. J. and Xie Y. K. A peripheral mononeuropathy in rat that produces disorders of pain sensation like those seen in man, Pain, (1988) 33:87-107]. Briefly, rats were anaesthetized (100 mg/kg ketamine and 10 mg/kg xylazine i.p.) and the left sciatic nerve was exposed at the level of the thigh by blunt dissection through the biceps femoris. Proximal to the sciatic's trifurcation, about 12 mm of nerve was freed of adhering tissue and four ligatures were loosely tied around it with about 1 mm spacing so that the epineural circulation was preserved. The length of nerve thus affected was 6-8 mm long. The animals were allowed to recover and used the day after the surgery. Sham animals represent rats operated but not ligated.
To assess for changes in sensation or in the development of mechanical allodynia, sensitivity to tactile stimulation was measured using the Dynamic Plantar Aesthesiometer (DPA, Ugo Basile, Italy). Ligated animals were placed in a chamber with a mesh metal floor covered by a plastic dome that enabled the animal to walk freely, but not to jump. The mechanical stimulus was then delivered in the mid-plantar skin of the hind paw. The cut-off was fixed at 50 g, while the increasing force rate (ramp duration) was settled at 20 sec. […]

Male Wistar rats [3] = test: Chronic constriction injury model, cold allodynia (acetone); assay type: in vivo, rat
Protocol: as §1, §2, §3
Cold sensitivity was measured as the number of foot withdrawal responses after application of acetone to the dorsal surface of the paw. A drop of acetone (15-20° C.) was applied to the dorsal surface of the ligated paw with a syringe connected to a thin polyethylene tube while the rats were standing on a metal mesh. A brisk foot withdrawal response, after the spread of acetone over the dorsal surface of the paw, was considered as a sign of cold allodynia. Basal response was measured on the days before treatment (2nd, 6th and 13th). […]

TRPV1 = TRPV1 (Homo sapiens, UniProt Q8NER1); test: Calcium influx counterassay, agonist capsaicin; assay type: cell-based; conditions: 0.1 μM capsaicin = 100%, read-out: Normalized % inhibition (TRPV1)
Protocol: In order to address more specifically the potential selectivity issues, a counterassay was carried out for 10, 45 and 118 against TRPV1 and TRPV4 ion channels, both involved in the nociception (Jhaveri M D, et al 2005. Eur. J. Neurosci. 22 (2): 361-70, Brierley S M et al, 2008, Gastroenterology. 2008 June; 134(7):2059-69. ). The ability of each test compound to act as an antagonist of TRPV1 was evaluated with a calcium influx assay.

TRPM8 [4] = molecular target: T1, TRPM8
From the text: Values were considered significant if the test compound mean was three or more standard deviations away from the positive control agonist mean.

Log D = assay type: physicochemical
TRPV4 = TRPV4 (Homo sapiens, UniProt Q9HBA0); test: Calcium influx counterassay, agonist GSK1016790A; assay type: cell-based; conditions: 10 μM GSK1016790A = 100%, read-out: Normalized % inhibition (TRPV4)
Protocol: In parallel, the ability of each test compound to act as an antagonist of TRPV4 was evaluated with a calcium influx assay.

[5] = 10 mg/kg i.v., day 7 after nerve injury, 1 hour post-dose
[6] = 10 mg/kg i.v., day 7, 1 hour post-dose
[7] = day 14 after surgery, 1 h post-dose (Compound 118: 10 mg/kg i.v.)

T1 sequence (Q7Z2W7 whole entry): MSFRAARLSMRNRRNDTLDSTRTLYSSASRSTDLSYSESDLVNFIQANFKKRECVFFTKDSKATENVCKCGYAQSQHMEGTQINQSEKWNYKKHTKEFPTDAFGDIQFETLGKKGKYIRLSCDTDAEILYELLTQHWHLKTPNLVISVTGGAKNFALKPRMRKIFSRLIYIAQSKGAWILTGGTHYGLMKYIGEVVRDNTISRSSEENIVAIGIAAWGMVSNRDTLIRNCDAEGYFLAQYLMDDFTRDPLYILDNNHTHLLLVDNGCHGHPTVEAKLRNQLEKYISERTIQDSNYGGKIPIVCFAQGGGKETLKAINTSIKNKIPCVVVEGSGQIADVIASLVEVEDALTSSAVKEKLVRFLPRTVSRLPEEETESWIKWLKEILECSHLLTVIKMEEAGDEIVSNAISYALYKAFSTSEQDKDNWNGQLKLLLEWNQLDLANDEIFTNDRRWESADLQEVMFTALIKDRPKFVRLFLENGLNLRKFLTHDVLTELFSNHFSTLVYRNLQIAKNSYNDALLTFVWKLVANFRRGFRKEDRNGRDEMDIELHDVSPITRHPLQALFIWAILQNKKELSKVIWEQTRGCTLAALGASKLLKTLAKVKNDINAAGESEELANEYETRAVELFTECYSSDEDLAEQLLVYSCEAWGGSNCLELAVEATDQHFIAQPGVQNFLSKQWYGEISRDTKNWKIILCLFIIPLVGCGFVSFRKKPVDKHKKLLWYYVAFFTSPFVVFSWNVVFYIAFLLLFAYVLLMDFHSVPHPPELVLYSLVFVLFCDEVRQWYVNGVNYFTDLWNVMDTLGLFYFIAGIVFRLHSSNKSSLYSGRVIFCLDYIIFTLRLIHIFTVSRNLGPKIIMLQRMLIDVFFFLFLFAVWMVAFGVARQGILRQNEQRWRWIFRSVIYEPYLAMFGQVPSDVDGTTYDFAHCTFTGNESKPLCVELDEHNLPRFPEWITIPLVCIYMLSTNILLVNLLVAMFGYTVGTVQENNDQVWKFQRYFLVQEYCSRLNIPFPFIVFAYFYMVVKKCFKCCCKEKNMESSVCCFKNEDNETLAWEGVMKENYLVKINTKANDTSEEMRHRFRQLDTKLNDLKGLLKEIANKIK
Chain of TRPV4 (Q9HBA0 whole entry, species assumed): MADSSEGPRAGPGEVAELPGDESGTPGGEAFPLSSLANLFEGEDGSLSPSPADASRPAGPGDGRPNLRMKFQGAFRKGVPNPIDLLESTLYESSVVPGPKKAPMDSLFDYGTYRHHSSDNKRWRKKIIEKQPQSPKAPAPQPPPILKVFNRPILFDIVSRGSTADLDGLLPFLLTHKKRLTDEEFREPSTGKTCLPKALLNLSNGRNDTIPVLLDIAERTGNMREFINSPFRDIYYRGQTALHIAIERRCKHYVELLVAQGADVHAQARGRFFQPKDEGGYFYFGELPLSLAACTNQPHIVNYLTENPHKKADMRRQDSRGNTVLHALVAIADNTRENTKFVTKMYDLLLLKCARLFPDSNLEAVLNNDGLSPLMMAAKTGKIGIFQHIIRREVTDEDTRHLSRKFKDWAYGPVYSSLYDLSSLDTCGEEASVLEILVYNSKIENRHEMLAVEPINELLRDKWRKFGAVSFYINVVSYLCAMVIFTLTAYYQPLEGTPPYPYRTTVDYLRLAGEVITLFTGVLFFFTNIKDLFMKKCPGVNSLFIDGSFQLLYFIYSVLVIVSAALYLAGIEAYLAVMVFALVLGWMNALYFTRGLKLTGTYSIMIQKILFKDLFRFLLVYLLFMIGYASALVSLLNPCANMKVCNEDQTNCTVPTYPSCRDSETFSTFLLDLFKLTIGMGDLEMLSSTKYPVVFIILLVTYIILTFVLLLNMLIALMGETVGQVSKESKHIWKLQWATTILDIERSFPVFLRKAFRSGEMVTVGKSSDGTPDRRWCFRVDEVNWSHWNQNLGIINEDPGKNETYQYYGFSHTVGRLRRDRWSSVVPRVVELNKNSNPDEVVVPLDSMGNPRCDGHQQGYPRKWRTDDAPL
Chain of TRPV1 (Q8NER1 whole entry, species assumed): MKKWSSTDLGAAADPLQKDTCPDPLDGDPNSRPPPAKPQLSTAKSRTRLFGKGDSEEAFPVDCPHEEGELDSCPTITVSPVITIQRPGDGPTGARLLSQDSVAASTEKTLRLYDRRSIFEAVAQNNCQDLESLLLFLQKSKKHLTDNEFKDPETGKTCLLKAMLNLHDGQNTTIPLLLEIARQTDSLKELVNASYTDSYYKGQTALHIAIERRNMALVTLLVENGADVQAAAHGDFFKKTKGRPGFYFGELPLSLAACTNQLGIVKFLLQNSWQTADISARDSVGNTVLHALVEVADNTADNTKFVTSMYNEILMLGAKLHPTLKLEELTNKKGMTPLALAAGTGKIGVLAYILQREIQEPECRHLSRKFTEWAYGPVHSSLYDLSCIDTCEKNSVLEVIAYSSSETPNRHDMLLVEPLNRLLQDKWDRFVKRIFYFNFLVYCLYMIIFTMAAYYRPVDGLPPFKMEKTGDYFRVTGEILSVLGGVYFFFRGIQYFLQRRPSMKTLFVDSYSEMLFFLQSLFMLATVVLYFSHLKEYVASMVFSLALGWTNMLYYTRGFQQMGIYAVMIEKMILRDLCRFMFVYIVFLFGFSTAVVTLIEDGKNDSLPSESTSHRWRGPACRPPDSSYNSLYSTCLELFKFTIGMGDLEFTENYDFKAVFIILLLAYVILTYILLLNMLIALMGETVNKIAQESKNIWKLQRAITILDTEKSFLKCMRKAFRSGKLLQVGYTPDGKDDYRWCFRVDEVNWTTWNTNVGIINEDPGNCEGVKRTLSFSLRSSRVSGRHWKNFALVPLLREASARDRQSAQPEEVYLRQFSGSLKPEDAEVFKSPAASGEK

Structure (SMILES): Cc1ccc(-c2nc(O)c(C(=O)O)s2)cc1 [Compound 2, 4-hydroxy-2-(4-methylphenyl)-1,3-thiazole-5-carboxylic acid]
pIC50 (TRPM8 [1]): > 5.00

Structure (SMILES): CCOC(=O)c1sc(-c2ccc(Cl)cc2)nc1NCCNC [Compound 68, ethyl 2-(4-chlorophenyl)-4-{[2-(methylamino)ethyl]amino}-1,3-thiazole-5-carboxylate]
pIC50 (TRPM8 [1]): > 5.00

Structure (SMILES): CCOC(=O)c1sc(-c2ccccc2)nc1OCc1ccc(Cl)cc1 [Compound 27, ethyl 4-[(4-chlorobenzyl)oxy]-2-phenyl-1,3-thiazole-5-carboxylate]
pIC50 (TRPM8 [1]): > 5.00

Structure (SMILES): Cc1ccc(-c2nc(OCc3ccc(Cl)cc3)c(C(=O)O)s2)cc1 [Compound 83, sodium 4-[(4-chlorobenzyl)oxy]-2-(4-methylphenyl)-1,3-thiazole-5-carboxylate]
pIC50 (TRPM8 [1]): > 5.00

Structure (SMILES): CCn1nnc(-c2sc(-c3cccc(F)c3)nc2O)n1 [Compound 118, 2-(3-fluorophenyl)-5-(2-ethyl-2H-tetrazol-5-yl)-1,3-thiazol-4-ol]
mechanical allodynia (Male Wistar rats [2]; [6]): significantly attenuated | inhibition of mechanical allodynia (Male Wistar rats [2]; [7]): no inhibition | inhibition at 1 µM (TRPV1; Test Conc. 1 uM): 1.2% | inhibition at 10 µM (TRPV1; Test Conc. 10 uM): 2.3% | antagonist activity in calcium influx assay (TRPM8 [4]): confirmed the antagonist activity | cold allodynia (Male Wistar rats [3]; [6]): significantly attenuated | inhibition of cold allodynia (Male Wistar rats [3]; [7]): 52 % of inhibition | log D values (Log D): low | inhibition at 1 µM (TRPV4; Test Conc. 1 uM): 2% | inhibition at 10 µM (TRPV4; Test Conc. 10 uM): 8.9%

Structure (SMILES): CCOC(=O)c1sc(-c2ccccc2)nc1OC(=O)c1ccc(C(F)(F)F)cc1 [Compound 36, ethyl 2-phenyl-4-{[4-(trifluoromethyl)benzoyl]oxy}-1,3-thiazole-5-carboxylate]
pIC50 (TRPM8 [1]): > 5.00

Structure (SMILES): O=C(O)c1sc(-c2ccc(Cl)cc2)nc1OCc1ccc(Cl)cc1 [Compound 84, sodium 4-(4-chlorobenzyloxy)-2-(4-chlorophenyl)-1,3-thiazole-5-carboxylate]
pIC50 (TRPM8 [1]): > 5.00

Structure (SMILES): CCOC(=O)c1sc(-c2ccc(Cl)cc2)nc1OCCN [Compound 41, ethyl 4-(2-aminoethoxy)-2-(4-chlorophenyl)-1,3-thiazole-5-carboxylate]
pIC50 (TRPM8 [1]): > 5.00

Now from value to compound, other results behind:

pIC50 (TRPM8 [1]): > 5.00
Structure (SMILES): CCOC(=O)c1sc(-c2ccc(Cl)cc2)nc1NCCN [Compound 70, ethyl 4-[(2-aminoethyl)amino]-2-(4-chlorophenyl)-1,3-thiazole-5-carboxylate]

pIC50 (TRPM8 [1]): > 5.00
Structure (SMILES): O=C(O)c1sc(-c2ccc(Cl)cc2)nc1O [Compound 1, 2-(4-chlorophenyl)-4-hydroxy-1,3-thiazole-5-carboxylic acid]
inhibition of mechanical allodynia (Male Wistar rats [2]; [5]): 26 % of inhibition | inhibition of cold allodynia (Male Wistar rats [3]; [5]): 39 % of inhibition

pIC50 (TRPM8 [1]): > 5.00
Structure (SMILES): CCOC(=O)c1sc(-c2ccc(C)cc2)nc1NCCN [Compound 67, ethyl 4-[(2-aminoethyl)amino]-2-(4-methylphenyl)-1,3-thiazole-5-carboxylate]
